Measured values: patent US5574006A, “Nasally administrable peptide compositions on hydroxyapatite carriers” (Dott Research Laboratory, priority 1993, dated 1996)

What was measured:
blood sugar = assay: Average fall of the blood sugar in rabbits after insulin administration; format: in vivo, New Zealand rabbits; settings: S.C., 2 IU/rabbit
Protocol: The resulting composition was nasally administered once to six male New Zealand rabbits. The average fall of the blood sugar was measured and represented in percentage (%) at 0, 15, 30, 60, 120 and 180 minutes after administration. For comparison, 2 (IU)/rabbit of insulin was administered subcutaneously to six male New Zealand rabbits and the average fall of the blood sugar was measured and represented in […] (%) at 0, 60, 120, 240 and 360 minutes after administration.

[1] = set-up: species or system healthy male adults; settings: in vivo
Protocol: A nasally administrable composition in powdery form was prepared by formulating salmon calcitonin as a physiologically active peptide at the rate of 200 MRC (IU) per 25 mg with hydroxyapatite as a carrier.
(§1) The resulting composition was nasally administered once at the dose of 25 mg to six healthy male adults and the blood (2.5 ml) was collected from each of the tested adults prior to administration and then at 5, 10, 15, 20, 30, 45, 60, 90, 120 and 180 minutes after administration. The concentration of the salmon calcitonin in each of the collected blood samples was assayed with a standard RIA assay kit.

[2] = set-up: species or system healthy male adults; settings: in vivo; remark: listed apart in the source
Protocol: A nasally administrable composition in powdery form was prepared by formulating salmon calcitonin as a physiologically active peptide at the rate of 200 MRC (IU) per 25 mg with hydroxyapatite as a carrier having a mean particle size ranging from 40 to 45 μm.
as §1

Substance: insulin [Comparison]
- Average fall of the blood sugar (blood sugar; 0 min): 100%
- Average fall of the blood sugar (blood sugar; 60 min): 57%
- Average fall of the blood sugar (blood sugar; 120 min): 56%
- Average fall of the blood sugar (blood sugar; 240 min): 84%
- Average fall of the blood sugar (blood sugar; 360 min): 94%

Substance: hydroxyapatite
- absorption of calcitonin through the nasal cavity (in words) [1]: effective to attain better absorption of calcitonin through the nasal cavity
- absorption of calcitonin (in words) [2]: effective to attain better absorption of calcitonin
